Laboratory results from patent EP0726261A1, “Herbidical 1,2,4 thiadiazoles” (American Cyanamid Company, priority 1995, dated 1996).

Tests used:
Assay type in all cases: in vivo
[1] = test system: Hordeum vulgare; experiment: Preemergence herbicidal activity (Example 67); parameters: herbicide rating, HORVW: scale not given here; details: pre, 800 g/ha; for herbicide rating, HORVW: rated about 1-3 weeks after treatment
How it was run: (§1)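 Cups filled with a horticultural substrate (peat, volcanic clay, bark residues, polyamide) mixed 1:3 with loamy sand were sprayed on the soil surface with compound at 800g/ha. Plants were then grown on greenhouse benches and evaluated roughly 1-3 weeks later.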

[2] = test system: Veronica persica; experiment: Postemergence herbicidal activity (Example 67); details: pos, 800 g/ha; for herbicide rating, VERPE: rated after 10-21 days
How it was run: (§2)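 Test compound is dissolved in acetone with 0.5% TRITON X-155 and diluted with water. It is then sprayed at 800g/ha (400 L/ha, 3 bar) onto 3-6 week old plants. The plants are kept in the greenhouse and rated after 10-21 days.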

[3] = test system: Zea mays; experiment: Postemergence herbicidal activity (Example 67); details: pos, 800 g/ha; for herbicide rating, ZEAMX: rated after 10-21 days
How it was run: as §2

[4] = test system: Setaria viridis; experiment: Postemergence herbicidal activity (Example 67); details: pos, 800 g/ha; for herbicide rating, SETVI: rated after 10-21 days
How it was run: as §2

[5] = test system: Hordeum vulgare; experiment: Postemergence herbicidal activity (Example 67); details: pos, 800 g/ha; for herbicide rating, HORVW: rated after 10-21 days
How it was run: as §2

[6] = test system: Alopecurus myosuroides; experiment: Postemergence herbicidal activity (Example 67); details: pos, 800 g/ha; for herbicide rating, ALOMY: rated after 10-21 days
How it was run: as §2

[7] = test system: Triticum aestivum; experiment: Postemergence herbicidal activity (Example 67); details: pos, 800 g/ha; for herbicide rating, TRZAW: rated after 10-21 days
How it was run: as §2

[8] = test system: Chenopodium album; experiment: Postemergence herbicidal activity (Example 67); details: pos, 800 g/ha; for herbicide rating, CHEAL: rated after 10-21 days
How it was run: as §2

[9] = test system: Ipomoea hederacea; experiment: Postemergence herbicidal activity (Example 67); details: pos, 800 g/ha; for herbicide rating, IPOHE: rated after 10-21 days
How it was run: as §2

[10] = test system: Amaranthus retroflexus; experiment: Postemergence herbicidal activity (Example 67); details: pos, 800 g/ha; for herbicide rating, AMARE: rated after 10-21 days
How it was run: as §2

[11] = test system: Helianthus annuus; experiment: Postemergence herbicidal activity (Example 67); details: pos, 800 g/ha; for herbicide rating, HELAN: rated after 10-21 days
How it was run: as §2

[12] = test system: Abutilon theophrasti; experiment: Postemergence herbicidal activity (Example 67); details: pos, 800 g/ha; for herbicide rating, ABUTH: rated after 10-21 days
How it was run: as §2

[13] = test system: Galium aparine; experiment: Postemergence herbicidal activity (Example 67); details: pos, 800 g/ha; for herbicide rating, GALAP: rated after 10-21 days
How it was run: as §2

[14] = test system: Setaria viridis; experiment: Preemergence herbicidal activity (Example 67); parameters: herbicide rating, SETVI: scale not given here; details: pre, 800 g/ha; for herbicide rating, SETVI: rated about 1-3 weeks after treatment
How it was run: as §1

[15] = test system: Veronica persica; experiment: Preemergence herbicidal activity (Example 67); details: pre, 800 g/ha; for herbicide rating, VERPE: rated about 1-3 weeks after treatment
How it was run: as §1

[16] = test system: Zea mays; experiment: Preemergence herbicidal activity (Example 67); details: pre, 800 g/ha; for herbicide rating, ZEAMX: rated about 1-3 weeks after treatment
How it was run: as §1

[17] = test system: Chenopodium album; experiment: Preemergence herbicidal activity (Example 67); details: pre, 800 g/ha; for herbicide rating, CHEAL: rated about 1-3 weeks after treatment
How it was run: as §1

[18] = test system: Ipomoea hederacea; experiment: Preemergence herbicidal activity (Example 67); details: pre, 800 g/ha; for herbicide rating, IPOHE: rated about 1-3 weeks after treatment
How it was run: as §1

[19] = test system: Amaranthus retroflexus; experiment: Preemergence herbicidal activity (Example 67); details: pre, 800 g/ha; for herbicide rating, AMARE: rated about 1-3 weeks after treatment
How it was run: as §1

[20] = test system: Helianthus annuus; experiment: Preemergence herbicidal activity (Example 67); details: pre, 800 g/ha; for herbicide rating, HELAN: rated about 1-3 weeks after treatment
How it was run: as §1

[21] = test system: Abutilon theophrasti; experiment: Preemergence herbicidal activity (Example 67); details: pre, 800 g/ha; for herbicide rating, ABUTH: rated about 1-3 weeks after treatment
How it was run: as §1

[22] = test system: Galium aparine; experiment: Preemergence herbicidal activity (Example 67); details: pre, 800 g/ha; for herbicide rating, GALAP: rated about 1-3 weeks after treatment
How it was run: as §1

[23] = test system: Triticum aestivum; experiment: Preemergence herbicidal activity (Example 67); parameters: herbicide rating, TRZAW: scale not given here; details: pre, 800 g/ha; for herbicide rating, TRZAW: rated about 1-3 weeks after treatment
How it was run: as §1

[24] = test system: Alopecurus myosuroides; experiment: Preemergence herbicidal activity (Example 67); parameters: herbicide rating, ALOMY: scale not given here; details: pre, 800 g/ha; for herbicide rating, ALOMY: rated about 1-3 weeks after treatment
How it was run: as §1

SMILES: O=C(Nc1cccc(F)c1)c1nsc(-c2cccc(C(F)(F)F)c2)n1 [Example 65]
- HOR VW rating [1]: 0
- VER PE rating [2]: 0
- ZEA MX rating [3]: 0
- SET VI rating [4]: 0
- HOR VW rating [5]: 1 (1-5%)
- ALO MY rating [6]: 1 (1-5%)
- TRZ AW rating [7]: 3 (16-29%)
- CHE AL rating [8]: 0
- IPO HE rating [9]: 1 (1-5%)
- AMA RE rating [10]: 0
- HEL AN rating [11]: 0
- ABU TH rating [12]: 0
- GAL AP rating [13]: 0
- SET VI rating [14]: 0
- VER PE rating [15]: 0
- ZEA MX rating [16]: 0
- CHE AL rating [17]: 1 (1-5%)
- IPO HE rating [18]: 3 (16-29%)
- AMA RE rating [19]: 0
- HEL AN rating [20]: 0
- ABU TH rating [21]: 3 (16-29%)
- GAL AP rating [22]: 0
- TRZ AW rating [23]: 2 (6-15%)
- ALO MY rating [24]: 4 (30-44%)

SMILES: COc1ccc(-c2nsc(C(=O)N[C@@H](C)c3ccccc3)n2)cc1 [Example 2, (S)-3-(4-Methoxyphenyl)-[1,2,4]thiadiazole-5-carboxylic acid (1-phenylethyl)amide]
- herbicide rating, HORVW [1]: 0
- herbicide rating, VERPE [2]: 0
- herbicide rating, ZEAMX [3]: 1 (1-5%)
- herbicide rating, SETVI [4]: 5 (45-64%)
- herbicide rating, HORVW [5]: 2 (6-15%)
- herbicide rating, ALOMY [6]: 2 (6-15%)
- herbicide rating, TRZAW [7]: 2 (6-15%)
- herbicide rating, CHEAL [8]: 3 (16-29%)
- herbicide rating, IPOHE [9]: 2 (6-15%)
- herbicide rating, AMARE [10]: 0
- herbicide rating, HELAN [11]: 1 (1-5%)
- herbicide rating, ABUTH [12]: 1 (1-5%)
- herbicide rating, GALAP [13]: 0
- herbicide rating, SETVI [14]: 0
- herbicide rating, VERPE [15]: 0
- herbicide rating, ZEAMX [16]: 0
- herbicide rating, CHEAL [17]: 0
- herbicide rating, IPOHE [18]: 5 (45-64%)
- herbicide rating, AMARE [19]: 0
- herbicide rating, HELAN [20]: 0
- herbicide rating, ABUTH [21]: 0
- herbicide rating, GALAP [22]: 0
- herbicide rating, TRZAW [23]: 0
- herbicide rating, ALOMY [24]: 0

SMILES: COc1ccc(-c2nsc(C(=O)NC(C)c3cccs3)n2)cc1 (racemic) [Example 35]
- herbicide rating, HORVW [1]: 0
- herbicide rating, VERPE [2]: 2 (6-15%)
- herbicide rating, ZEAMX [3]: 3 (16-29%)
- herbicide rating, SETVI [4]: 8 (91-99%)
- herbicide rating, HORVW [5]: 3 (16-29%)
- herbicide rating, ALOMY [6]: 3 (16-29%)
- herbicide rating, TRZAW [7]: 3 (16-29%)
- herbicide rating, CHEAL [8]: 5 (45-64%)
- herbicide rating, IPOHE [9]: 4 (30-44%)
- herbicide rating, AMARE [10]: 3 (16-29%)
- herbicide rating, HELAN [11]: 5 (45-64%)
- herbicide rating, ABUTH [12]: 4 (30-44%)
- herbicide rating, GALAP [13]: 4 (30-44%)
- herbicide rating, SETVI [14]: 0
- herbicide rating, VERPE [15]: 4 (30-44%)
- herbicide rating, ZEAMX [16]: 0
- herbicide rating, CHEAL [17]: 5 (45-64%)
- herbicide rating, IPOHE [18]: 0
- herbicide rating, AMARE [19]: 0
- herbicide rating, HELAN [20]: 3 (16-29%)
- herbicide rating, ABUTH [21]: 0
- herbicide rating, GALAP [22]: 4 (30-44%)
- herbicide rating, TRZAW [23]: 0
- herbicide rating, ALOMY [24]: 0

SMILES: O=C(Nc1ccc(F)cc1F)c1nsc(-c2cccc(C(F)(F)F)c2)n1 [Example 62]
- HOR VW rating [1]: 0
- VER PE rating [2]: 0
- ZEA MX rating [3]: 1 (1-5%)
- SET VI rating [4]: 5 (45-64%)
- HOR VW rating [5]: 0
- ALO MY rating [6]: 0
- TRZ AW rating [7]: 1 (1-5%)
- CHE AL rating [8]: 1 (1-5%)
- IPO HE rating [9]: 1 (1-5%)
- AMA RE rating [10]: 0
- HEL AN rating [11]: 0
- ABU TH rating [12]: 0
- GAL AP rating [13]: 0
- SET VI rating [14]: 0
- VER PE rating [15]: 0
- ZEA MX rating [16]: 0
- CHE AL rating [17]: 0
- IPO HE rating [18]: 3 (16-29%)
- AMA RE rating [19]: 0
- HEL AN rating [20]: 0
- ABU TH rating [21]: 1 (1-5%)
- GAL AP rating [22]: 0
- TRZ AW rating [23]: 0
- ALO MY rating [24]: 3 (16-29%)

SMILES: O=C(NC1CCCc2ccccc21)c1nc(-c2ccccc2F)ns1 (racemic) [Example 53]
- HOR VW rating [1]: 0
- VER PE rating [2]: 0
- ZEA MX rating [3]: 0
- SET VI rating [4]: 5 (45-64%)
- HOR VW rating [5]: 2 (6-15%)
- ALO MY rating [6]: 1 (1-5%)
- TRZ AW rating [7]: 2 (6-15%)
- CHE AL rating [8]: 0
- IPO HE rating [9]: 2 (6-15%)
- AMA RE rating [10]: 0
- HEL AN rating [11]: 0
- ABU TH rating [12]: 0
- GAL AP rating [13]: 2 (6-15%)
- SET VI rating [14]: 0
- VER PE rating [15]: 6 (65-79%)
- ZEA MX rating [16]: 0
- CHE AL rating [17]: 0
- IPO HE rating [18]: 0
- AMA RE rating [19]: 3 (16-29%)
- HEL AN rating [20]: 0
- ABU TH rating [21]: 0
- GAL AP rating [22]: 0
- TRZ AW rating [23]: 1 (1-5%)
- ALO MY rating [24]: 0

SMILES: CC(NC(=O)c1nc(-c2cccc(Cl)n2)ns1)c1cccs1 (racemic) [Example 47]
- HOR VW rating [1]: 0
- VER PE rating [2]: 3 (16-29%)
- ZEA MX rating [3]: 4 (30-44%)
- SET VI rating [4]: 6 (65-79%)
- HOR VW rating [5]: 3 (16-29%)
- ALO MY rating [6]: 4 (30-44%)
- TRZ AW rating [7]: 1 (1-5%)
- CHE AL rating [8]: 4 (30-44%)
- IPO HE rating [9]: 4 (30-44%)
- AMA RE rating [10]: 1 (1-5%)
- HEL AN rating [11]: 5 (45-64%)
- ABU TH rating [12]: 4 (30-44%)
- GAL AP rating [13]: 4 (30-44%)
- SET VI rating [14]: 3 (16-29%)
- VER PE rating [15]: 0
- ZEA MX rating [16]: 0
- CHE AL rating [17]: 0
- IPO HE rating [18]: 1 (1-5%)
- AMA RE rating [19]: 0
- HEL AN rating [20]: 0
- ABU TH rating [21]: 2 (6-15%)
- GAL AP rating [22]: 1 (1-5%)
- TRZ AW rating [23]: 0
- ALO MY rating [24]: 0
